Where a name gives a salt, the structure may show the parent alone.

One assay deals with T1, α7 nAChR (Rattus norvegicus, UniProt Q05941).
T1 construct: Rat brain tissue (hippocampus or whole brain) is homogenized in homogenization buffer; from tissue; host or cells: rat brain (hippocampus or whole brain), P2 membrane fraction
T1 sequence (Q05941 23-502): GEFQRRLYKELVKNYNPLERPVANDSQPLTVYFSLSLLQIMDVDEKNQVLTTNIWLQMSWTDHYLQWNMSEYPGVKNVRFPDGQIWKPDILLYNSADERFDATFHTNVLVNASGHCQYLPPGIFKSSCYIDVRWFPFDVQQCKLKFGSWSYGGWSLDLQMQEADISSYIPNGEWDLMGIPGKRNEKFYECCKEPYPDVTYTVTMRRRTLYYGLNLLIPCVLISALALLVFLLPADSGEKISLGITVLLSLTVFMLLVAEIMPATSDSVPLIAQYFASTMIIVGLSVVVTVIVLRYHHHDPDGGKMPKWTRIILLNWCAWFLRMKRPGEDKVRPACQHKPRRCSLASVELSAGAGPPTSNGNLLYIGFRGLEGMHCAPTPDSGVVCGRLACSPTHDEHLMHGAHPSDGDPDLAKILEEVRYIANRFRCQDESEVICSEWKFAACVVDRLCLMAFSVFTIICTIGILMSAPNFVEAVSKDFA
The experiment in a line: Affinity for α7 nAChR by inhibition of [3H]-methyllycaconitine binding to rat brain membranes.
Conditions: not given
The method, then: 1. Determination of the Affinity of Test Substances for α7 nAChR by Inhibition of [^3H]-methyllycaconitine Binding to Rat Brain Membranes
The [^3H]-methyllycaconitine binding assay is a modification of the method described by Davies et al. (Neuropharmacol. 1999, 38, 679–690).
Rat brain tissue (hippocampus or whole brain) is homogenized in homogenization buffer (10% w/v, 0.32 M sucrose, 1 mM EDTA, 0.1 mM phenylmethylsulfonyl fluoride (PMSF), 0.01% (w/v) NaN3, pH 7.4, 4° C.) at 600 rpm in a glass homogenizer. The homogenate is centrifuged (1000×g, 4° C., 10 min) and the supernatant is removed. The pellet is resuspended (20% w/v) and the suspension is centrifuged (1000×g, 4° C., 10 min). The two supernatants are combined and centrifuged (15 000×g, 4° C., 30 min). The pellet obtained in this way is referred to as the P2 fraction.
The P2 pellet is washed twice with binding buffer (50 mM Tris-HCl, 1 mM MgCl2, 120 mM NaCl, 5 mM KCl, 2 mM CaCl2, pH 7.4), and centrifuged (15 000×g, 4° C., 30 min).
The P2 membranes are resuspended in binding buffer and incubated in a volume of 250 μl (amount of membrane protein 0.1–0.5 mg) in the presence of 1–5 nM [^3H]-methyllycaconitine, 0.1% (w/v) BSA (bovine serum albumin) and various concentrations of the test substance at 21° C. for 2.5 h. The nonspecific binding is determined by incubation in the presence of 1 μM α-bungarotoxin or 100 μM nicotine or 10 μM MLA (methyllycaconitine).
The incubation is stopped by adding 4 ml of PBS (20 mM Na2HPO4, 5 mM KH2PO4, 150 mM NaCl, pH 7.4, 4° C.) and filtering through type A/E glass fibre filters (Gelman Sciences) which have previously been placed in 0.3% (v/v) polyethyleneimine (PEI) for 3 h. The filters are washed twice with 4 ml of PBS (4° C.), and the bound radioactivity is determined by scintillation measurement. All the assays are carried out in triplicate. The dissociation constant Ki of the test substance is determined from the IC50 of the compounds (concentration of the test substance at which 50% of the ligand bound to the receptor is displaced), the dissociation constant KD and the concentration L of [^3H]-methyllycaconitine using the equation Ki=IC50/(1+L/KD).
As usually defined, the Ki is a measure of affinity in units of concentration, obtained from inhibition or displacement. `O=C(Nc1ccc(-c2ccc(CO)cc2)cc1)[C@@H]1CN2CCC1CC2` [Example 15, (3S)-N-[4′-(Hydroxymethyl)-1,1′-biphenyl-4-yl]-1-azabicyclo[2.2.2]octane-3-carboxamide Hydrochloride] yielded an inhibition constant Ki of 39 nM.

As for `CC(C)(O)c1ccc(-c2ccc(NC(=O)[C@H]3CN4CCC3CC4)cc2)cc1` [Example 20, (3R)-N-[4′-(1-Hydroxy-1-methylethyl)-1,1′-biphenyl-4-yl]-1-azabicyclo[2.2.2]octane-3-carboxamide], the inhibition constant (Ki) stood at 10 nM.

Take `NC(=O)c1ccc(-c2ccc(NC(=O)[C@H]3CN4CCC3CC4)cc2)cc1` [Example 21, (3R)-N-[4′-(Aminocarbonyl)-1,1′-biphenyl-4-yl]-1-azabicyclo[2.2.2]octane-3-carboxamide Hydrochloride]: the Ki stood at 98 nM.

Take `O=C(Nc1ccc(-c2ccc(CO)c(F)c2)cc1)[C@H]1CN2CCC1CC2` [Example 22, (3R)-N-[4′-(Hydroxymethyl)-3′-fluoro-1,1′-biphenyl-4-yl]-1-azabicyclo[2.2.2]octane-3-carboxamide]: the Ki came to 58 nM.

`O=C(CC1CN2CCC1CC2)Nc1cccc(-c2ccc(CO)cc2)c1` (stereo not shown) [Example 9, 2-(1-Azabicyclo[2.2.2]oct-3-yl)-N-[4′-(hydroxymethyl)-1,1′-biphenyl-3-yl]acetamide Hydrochloride] displayed an inhibition constant Ki of 519 nM.

As for `CNC(=O)OCc1ccc(-c2ccc(NC(=O)[C@H]3CN4CCC3CC4)cc2)cc1` [Example 23, (4′-{[(3R)-1-Azabicyclo[2.2.2]oct-3-ylcarbonyl]amino}-1,1′-biphenyl-4-yl)methyl Methylcarbamate], the affinity corresponds to a Ki of 39 nM.

The compound `O=C(Nc1ccc(-c2ccc(CO)cc2)cc1)[C@H]1CN2CCC1CC2` [Example 14, (3R)-N-[4′-(Hydroxymethyl)-1,1′-biphenyl-4-yl]-1-azabicyclo[2.2.2]octane-3-carboxamide Hydrochloride] gave an inhibitory constant (Ki) of 20 nM.

Staying with this assay, now noted: [3H]-methyllycaconitine displacement, rat brain P2 membranes, 21° C., 2.5 h; Ki=IC50/(1+L/KD); read-out: Ki.
Regarding `CC(=O)c1ccccc1-c1ccc(NC(=O)CC2CN3CCC2CC3)cc1` (stereo not shown) [Example 31], the Ki turned out to be 420 nM.

Turning to `CC(C)NC(=O)OCc1ccc(-c2ccc(NC(=O)[C@H]3CN4CCC3CC4)cc2)cc1` [Example 24, (4′-{[(3R)-1-Azabicyclo[2.2.2]oct-3-ylcarbonyl]amino}-1,1′-biphenyl-4-yl)methyl Isopropylcarbamate], the Ki is 230 nM.

As for `CC(=O)c1ccc(-c2ccc(NC(=O)CC3CN4CCC3CC4)cc2)cc1` (stereo not shown) [Example 26], the inhibitory constant (Ki) is 310 nM.

(Values after patent publication US7138410B2, “Aza-bicyclic N-biarylamides with affinity for the α7 nicotinic acetylcholine receptor” (Bayer HealthCare AG, priority 2002, dated 2006).)
